Data published in publication PMC10254530, “Design and Synthesis of Brefeldin A-Isothiocyanate Derivatives with Selectivity and Their Potential for Cervical Cancer Therapy” (Molecules, 2023).
Where two headings read alike, the source gives them in different places.

Columns and labels:
[1] = tested on: HepG2 cells; assay: CCK-8 antiproliferative assay, HepG2; assay type: cell-based; settings: Homo sapiens, read-out: IC50 HepG2
Description: (§1) All cells were cultured in Dulbecco’s Modified Eagle’s Medium (DMEM) (Burlington, MA, USA) or Roswell Park Memorial Institute (RPMI)-1640 medium containing 10% fetal bovine serum and 1% penicillin/streptomycin in an incubator at 37 °C and 5% CO2. […] Cell suspension with a concentration of 8 × 10^4 cells/mL was prepared after cell counting. 100 μL cell suspension was added to each well of the 96-well plate and then placed in an incubator overnight. Most of the derivatives were configured into 80 mM, 20 mM or 4 mM stock solution in DMSO, and the stock solution concentration of BFA and paclitaxel was 0.4 mM. […] The medium in each well was discarded, and 100 μL of gradient diluted derivative solution was added (the control group was added with serum-free medium).

[2] = tested on: MDA-MB-231 cells; assay: CCK-8 antiproliferative assay, MDA-MB-231; assay type: cell-based; settings: Homo sapiens, read-out: IC50 MDA-MB-231
Description: as §1

[3] = tested on: A375 cells; assay: CCK-8 antiproliferative assay, A375; assay type: cell-based; settings: Homo sapiens, read-out: IC50 A375
Description: as §1

[4] = tested on: A549 cells; assay: CCK-8 antiproliferative assay, A549; assay type: cell-based; settings: Homo sapiens, read-out: IC50 A549
Description: as §1

[5] = tested on: HeLa cells; assay: CCK-8 antiproliferative assay, HeLa; assay type: cell-based, human; settings: for IC50: Homo sapiens, HeLa, read-out: IC50 HeLa; for SIHeLa, selectivity index between L-02 and HeLa: SI = IC50(L-02)/IC50(HeLa)
Description: as §1

[6] = tested on: L-02 cells; assay: CCK-8 cytotoxicity assay, normal liver L-02; assay type: cell-based; settings: Homo sapiens, read-out: IC50 L-02
Description: as §1

[7] = HepG2, CCK-8, 48 h, mean ± SD of three experiments
[8] = MDA-MB-231, CCK-8, 48 h, mean ± SD of three experiments
[9] = A-375, CCK-8, 48 h, mean ± SD of three experiments
[10] = A549, CCK-8, 48 h, mean ± SD of three experiments
[11] = CCK-8, 48 h, mean ± SD of three experiments
[12] = L02, CCK-8, 48 h, normal liver cells, mean ± SD of three experiments

| SMILES | IC50 [1, 7] | IC50 [2, 8] | IC50 [3, 9] | IC50 [4, 10] | IC50 [5, 11] | SIHeLa, selectivity index between L-02 and HeLa [5] | IC50 [6, 12] | IC50 ([1]; HepG2, 48 h) | IC50 ([2]; MDA-MB-231, 48 h) | IC50 ([3]; A-375, 48 h) | IC50 ([4]; A549, 48 h) | IC50 ([5]; 48 h) | IC50 ([6]; L02, 48 h) |
| --- | --- | --- | --- | --- | --- | --- | --- | --- | --- | --- | --- | --- | --- |
| C[C@H]1CCC/C=C/[C@@H]2C[C@H](O)C[C@H]2[C@H](O)/C=C/C(=O)O1 [BFA, Brefeldin A] | 0.12 ± 0.01 µM | 0.054 ± 0.001 µM | 0.039 ± 0.001 µM | 0.056 ± 0.002 µM | 0.044 ± 0.004 µM | 2.14 | 0.094 ± 0.004 µM | – | – | – | – | – | – |
| O=C(O)c1ccc(N=C=S)cc1 [Compound 2, 4-Carboxyphenyl isothiocyanate, reference compound] | – | – | – | – | – | 1.48 | – | > 100 µM | 82.1 ± 2.7 µM | 43 ± 3.34 µM | 79.2 ± 2.52 µM | 45.7 ± 1.74 µM | 67.8 ± 2 µM |
| C[C@H]1CCC/C=C/[C@@H]2C[C@H](OC(=O)c3ccc(N=C=S)cc3)C[C@H]2[C@H](OC(=O)c2ccc(N=C=S)cc2)/C=C/C(=O)O1 [Compound 5, (1R,2E,6S,10E,11aS,13S,14aR)-6-methyl-4-oxo-1,6,7,8,9,11a,12,13,14,14a-decahydro-4H-cyclopenta[f][1]oxacyclotridecine-1,13-diyl bis(4-isothiocyanatobenzoate)] | > 40 µM | > 40 µM | > 40 µM | 20.9 ± 1.42 µM | > 40 µM | – | > 80 µM | – | – | – | – | – | – |
| C[C@H]1CCC/C=C/[C@@H]2C[C@H](OC(=O)c3ccc(N=C=S)cc3)C[C@H]2[C@H](O)/C=C/C(=O)O1 [Compound 7, (1R,2E,6S,10E,11aS,13S,14aR)-1-Hydroxy-6-methyl-4-oxo-1,6,7,8,9,11a,12,13,14,14a-decahydro-4H-cyclopenta[f][1]oxacyclotridecin-13-yl 4-isothiocyanatobenzoate] | > 40 µM | 17 ± 1.21 µM | 5.78 ± 0.1 µM | 20.4 ± 1.31 µM | 3.02 ± 0.23 µM | 2.85 | 8.6 ± 0.71 µM | – | – | – | – | – | – |
| C[C@H]1CCC/C=C/[C@@H]2C[C@H](OC(=O)CCC(=O)OCCOC(=O)c3ccc(N=C=S)cc3)C[C@H]2[C@H](OC(=O)CCC(=O)OCCOC(=O)c2ccc(N=C=S)cc2)/C=C/C(=O)O1 [Compound 8a, Bis(2-((4-isothiocyanatobenzoyl)oxy)ethyl) O,O’-((1R,2E,6S,10E,11aS,13S,14aR)-6-methyl-4-oxo-1,6,7,8,9,11a,12,13,14,14a-decahydro-4H-cyclopenta[f][1]oxacyclotridecine-1,13-diyl) disuccinate] | > 40 µM | > 40 µM | > 40 µM | > 40 µM | 12 ± 1.47 µM | >6.68 | > 80 µM | – | – | – | – | – | – |
| C[C@H]1CCC/C=C/[C@@H]2C[C@H](OC(=O)CCC(=O)OCCCCOC(=O)c3ccc(N=C=S)cc3)C[C@H]2[C@H](OC(=O)CCC(=O)OCCCCOC(=O)c2ccc(N=C=S)cc2)/C=C/C(=O)O1 [Compound 8b, Bis(4-((4-isothiocyanatobenzoyl)oxy)butyl) O,O’-((1R,2E,6S,10E,11aS,13S,14aR)-6-methyl-4-oxo-1,6,7,8,9,11a,12,13,14,14a-decahydro-4H-cyclopenta[f][1]oxacyclotridecine-1,13-diyl) disuccinate] | > 40 µM | > 40 µM | > 40 µM | > 40 µM | 16.4 ± 1.35 µM | >4.88 | > 80 µM | – | – | – | – | – | – |
| C[C@H]1CCC/C=C/[C@@H]2C[C@H](OC(=O)CCC(=O)OCC#CCOC(=O)c3ccc(N=C=S)cc3)C[C@H]2[C@H](OC(=O)CCC(=O)OCC#CCOC(=O)c2ccc(N=C=S)cc2)/C=C/C(=O)O1 [Compound 8c, Bis(4-((4-isothiocyanatobenzoyl)oxy)but-2-yn-1-yl) O,O’-((1R,2E,6S,10E,11aS,13S,14aR)-6-methyl-4-oxo-1,6,7,8,9,11a,12,13,14,14a-decahydro-4H-cyclopenta[f][1]oxacyclotridecine-1,13-diyl) disuccinate] | > 40 µM | > 40 µM | > 40 µM | > 40 µM | 39 ± 1.43 µM | >2.05 | > 80 µM | – | – | – | – | – | – |
| C[C@H]1CCC/C=C/[C@@H]2C[C@H](OC(=O)CCC(=O)OCCOCCOC(=O)c3ccc(N=C=S)cc3)C[C@H]2[C@H](OC(=O)CCC(=O)OCCOCCOC(=O)c2ccc(N=C=S)cc2)/C=C/C(=O)O1 [Compound 8d, Bis(2-(2-((4-isothiocyanatobenzoyl)oxy)ethoxy)ethyl) O,O’-((1R,2E,6S,10E,11aS,13S,14aR)-6-methyl-4-oxo-1,6,7,8,9,11a,12,13,14,14a-decahydro-4H-cyclopenta[f][1]oxacyclotridecine-1,13-diyl) disuccinate] | > 40 µM | > 40 µM | 22.8 ± 1.58 µM | > 40 µM | 7.67 ± 0.33 µM | – | > 80 µM | – | – | – | – | – | – |
| C[C@H]1CCC/C=C/[C@@H]2C[C@H](OC(=O)CCC(=O)OCCCCCCOC(=O)c3ccc(N=C=S)cc3)C[C@H]2[C@H](OC(=O)CCC(=O)OCCCCCCOC(=O)c2ccc(N=C=S)cc2)/C=C/C(=O)O1 [Compound 8e, Bis(6-((4-isothiocyanatobenzoyl)oxy)hexyl) O,O’-((1R,2E,6S,10E,11aS,13S,14aR)-6-methyl-4-oxo-1,6,7,8,9,11a,12,13,14,14a-decahydro-4H-cyclopenta[f][1]oxacyclotridecine-1,13-diyl) disuccinate] | > 40 µM | > 40 µM | > 40 µM | > 40 µM | 26.8 ± 0.7 µM | >2.99 | > 80 µM | – | – | – | – | – | – |
| C[C@H]1CCC/C=C/[C@@H]2C[C@H](OC(=O)CCC(=O)Oc3ccc(OC(=O)c4ccc(N=C=S)cc4)cc3)C[C@H]2[C@H](OC(=O)CCC(=O)Oc2ccc(OC(=O)c3ccc(N=C=S)cc3)cc2)/C=C/C(=O)O1 [Compound 8f, Bis(4-((4-isothiocyanatobenzoyl)oxy)phenyl) O,O’-((1R,2E,6S,10E,11aS,13S,14aR)-6-methyl-4-oxo-1,6,7,8,9,11a,12,13,14,14a-decahydro-4H-cyclopenta[f][1]oxacyclotridecine-1,13-diyl) disuccinate] | > 40 µM | > 40 µM | > 40 µM | > 40 µM | > 40 µM | – | > 80 µM | – | – | – | – | – | – |
| C[C@H]1CCC/C=C/[C@@H]2C[C@H](OC(=O)/C=C\C(=O)OCCOC(=O)c3ccc(N=C=S)cc3)C[C@H]2[C@H](OC(=O)/C=C\C(=O)OCCOC(=O)c2ccc(N=C=S)cc2)/C=C/C(=O)O1 [Compound 8g, Bis(2-((4-isothiocyanatobenzoyl)oxy)ethyl) O,O’-((1R,2E,6S,10E,11aS,13S,14aR)-6-methyl-4-oxo-1,6,7,8,9,11a,12,13,14,14a-decahydro-4H-cyclopenta[f][1]oxacyclotridecine-1,13-diyl) dimaleate] | > 40 µM | > 40 µM | > 40 µM | > 40 µM | 9.74 ± 0.37 µM | >8.21 | > 80 µM | – | – | – | – | – | – |
| C[C@H]1CCC/C=C/[C@@H]2C[C@H](OC(=O)/C=C\C(=O)OCCCCOC(=O)c3ccc(N=C=S)cc3)C[C@H]2[C@H](OC(=O)/C=C\C(=O)OCCCCOC(=O)c2ccc(N=C=S)cc2)/C=C/C(=O)O1 [Compound 8h, Bis(4-((4-isothiocyanatobenzoyl)oxy)butyl) O,O’-((1R,2E,6S,10E,11aS,13S,14aR)-6-methyl-4-oxo-1,6,7,8,9,11a,12,13,14,14a-decahydro-4H-cyclopenta[f][1]oxacyclotridecine-1,13-diyl) dimaleate] | > 40 µM | > 40 µM | > 40 µM | > 40 µM | 8.48 ± 0.72 µM | – | > 80 µM | – | – | – | – | – | – |
| C[C@H]1CCC/C=C/[C@@H]2C[C@H](OC(=O)/C=C\C(=O)OCC#CCOC(=O)c3ccc(N=C=S)cc3)C[C@H]2[C@H](OC(=O)/C=C\C(=O)OCC#CCOC(=O)c2ccc(N=C=S)cc2)/C=C/C(=O)O1 [Compound 8i, Bis(4-((4-isothiocyanatobenzoyl)oxy)but-2-yn-1-yl) O,O’-((1R,2E,6S,10E,11aS,13S,14aR)-6-methyl-4-oxo-1,6,7,8,9,11a,12,13,14,14a-decahydro-4H-cyclopenta[f][1]oxacyclotridecine-1,13-diyl) dimaleate] | > 40 µM | > 40 µM | > 40 µM | > 40 µM | > 40 µM | – | > 80 µM | – | – | – | – | – | – |
